According to patent US20230330093A1, “APPLICATION OF NITROGEN-CONTAINING SATURATED HETEROCYCLIC COMPOUND” (SHANGHAI PHARMACEUTICALS HOLDING CO., LTD., priority 2020, published 2023):
Like-named read-outs stand apart in the source and are kept apart here.

Assay: Plasma pharmacokinetics and bioavailability after intravenous and oral administration
Assay type: in vivo, cynomolgus monkeys
Settings: for Vd/F: read-out: Vss/F
Method: Cynomolgus monkeys (3/sex/group: weight 3-5 kg, age 5-6 years old) were obtained from SuZhou XiShan ZhongKe Laboratory Animals (Shanghai, China). Animals were housed for a 7-day acclimation period before study. The monkeys were individually caged in a controlled temperature (18-26° C.) and humidity (50±20%) animal room with an air flow of 10 plus air changes per hour with fresh air. The lighting cycle was 12 h on and 12 h off, and the monkeys were fed once a day in the morning. All animal experiments were performed in accordance with the Animal Care and Use Guidelines set by the AMMS Animal Care and Use Committee.
The compound of Formula I was intravenously or orally administered to cynomolgus monkeys fasted overnight. The doses were 1 mg/kg (intravenous), 1 mg/kg, 3 mg/kg, and 9 mg/kg (oral). Blood samples were collected from a limb vein at 0, 5, and 15 min and at […], 0.5, 1, 2, 3, 4, 6, 8, 12, and 24 h (0.2 mL for each time point) after administration. All blood samples were centrifuged immediately after collection at 10,000×g for 5 min and the plasmas were stored at −75±10° C. until analysis. Plasma samples were prepared by protein precipitation. The concentrations of the compound of Formula I in plasma were determined by the validated liquid chromatography-tandem mass spectrometry method.
The pharmacokinetic parameters such as the area under the plasma concentration-time curve (AUC), maximum plasma concentration (Cmax), time to reach Cmax (Tmax), half-life (T1/2), total body plasma clearance (CL), mean residence time (MRT) and volume of distribution at steady state (Vss) were calculated by non-compartmental analysis with WinNonlin v1.3 (Pharsight, Mountain View, CA, USA). For allometric scaling, animal pharmacokinetic data were simulated by a two-compartment model with the Kinetica 5.1 software package (v.3.0; InnaPhase, Philadelphia, PA, USA).

[1] = both sexes, cynomolgus monkey, plasma, Monkey, 1 mg/kg iv
[2] = both sexes, cynomolgus monkey, plasma, Monkey, 1 mg/kg po
[3] = both sexes, cynomolgus monkey, plasma, Monkey, 3 mg/kg po
[4] = both sexes, cynomolgus monkey, plasma, Monkey, 9 mg/kg po
[5] = both sexes, cynomolgus, cynomolgus monkey, plasma, Monkey, 3 mg/kg po
[6] = both sexes, cynomolgus, cynomolgus monkey, plasma, Monkey, 9 mg/kg po

## COC(=O)NCCCn1nc([C@@H](C)N(C(=O)[C@H]2CNCCO2)C2CC2)c2ccc(C)nc21 [compound of Formula I]
Monkey, 1 mg/kg po
  F: 3.3%
Monkey, 3 mg/kg po
  F: 8.0%
Monkey, 9 mg/kg po
  F: 11.3%
Both sexes, cynomolgus monkey, plasma, iv, 1 mg/kg, Monkey, 1 mg/kg iv
  half-life: 2.73 h
Both sexes, cynomolgus monkey, plasma, po, 1 mg/kg, Monkey, 1 mg/kg po
  half-life: 2.9 h
Both sexes, cynomolgus monkey, plasma, po, 9 mg/kg, Monkey, 9 mg/kg po
  half-life: 5.99 h
Both sexes, cynomolgus monkey, plasma, po, 9 mg/kg, oral 1, 3, 9 mg/kg, monkey plasma
  half-life: 2.73 to 5.99 h
[1]
  AUC: 421 ng·h/mL
  Cmax: 466 ng/mL
  MRT: 0.97 h
Both sexes, cynomolgus monkey, plasma, Monkey, 1 mg/kg iv, read-out: Vss
  Vd: 1.86 L/kg
[2]
  AUC: 11.8 ng·h/mL
  CL/F: 1410 mL/min/kg
  Cmax: 3.99 ng/mL
  MRT: 4.32 h
  Tmax: 1 h
  Vd/F: 366 L/kg
[3]
  CL/F: 503 mL/min/kg
  Vd/F: 104 L/kg
[4]
  AUC: 426 ng·h/mL
  Cmax: 263 ng/mL
  MRT: 2.62 h
  Tmax: 1 h
Both sexes, cynomolgus monkey, plasma, intravenous 1 mg/kg, monkeys
  clearance: 32.7 mL/min/kg
Both sexes, cynomolgus monkey, plasma, monkeys, calculated from AUC0-24h after iv and po administration
  bioavailability: 3.3 to 11.3%
Both sexes, cynomolgus, cynomolgus monkey, plasma, po, 3 mg/kg, Monkey, 3 mg/kg po
  half-life: 3.68 h
[5]
  AUC: 99.4 ng·h/mL
  Cmax: 42.2 ng/mL
  MRT: 3.46 h
  Tmax: 1.3 h
[6]
  CL/F: 353 mL/min/kg
  Vd/F: 55.5 L/kg
Intravenous 1 mg/kg, monkeys
  distribution volume: 1.86 L/kg
